In article PMC6113223 (2018):

Key:
[1] = tested on: Lee aptamer (56-mer) (DNA, aptamer) AGCAGCACAGAGGTCATGGGGGGTGTGACTTTGGTGTGCCTATGCGTGCTACGGAA; test: AuNP aggregation colorimetry (A650/A525), centrifugation and resuspension; conditions: 100 mM NaCl (Na+), added after target incubation, water, 5% ethanol in target solution, room temperature; for binding: tested at 600 nM
[2] = tested on: Random ssDNA (70-mer) (DNA, single strand) AGGCCTAAGGGCATAATTAGCTCGAGCTCGAAAGGGGTTATATGATGATTTGAATTCATGGGGCCCGACT; test: as above; conditions: 100 mM NaCl (Na+), added after target incubation; water, 5% ethanol in target solution, room temperature; control; VTD3 series in Figures 2C and 3B

Row | binding [1] | SMILES | also measured
1 | – | C=C1CC[C@H](O)C/C1=C/C=C1\CCC[C@]2(C)[C@@H]([C@H](C)/C=C/[C@H](C)C(C)C)CC[C@@H]12 | binding ([1]; concentration series in Figure 2C): no
2 | – | C=C1CC[C@H](O)C/C1=C/C=C1\CCC[C@]2(C)[C@@H]([C@H](C)CCCC(C)C)CC[C@@H]12 | binding [2]: no; Kd, app ([1]; 10 min, apparent, Langmuir fit, aptamer adsorbed on AuNP): 220 nM
3 | no | CC(=O)[C@H]1CC[C@H]2[C@@H]3CCC4=CC(=O)CC[C@]4(C)[C@H]3CC[C@]12C | –
4 | no | C[C@]12C=CC(=O)C=C1CC[C@@H]1[C@@H]2C(=O)C[C@@]2(C)[C@H]1CC[C@]2(O)C(=O)CO | –
5 | no | C[C@]12CC[C@@H]3c4ccc(O)cc4CC[C@H]3[C@@H]1CC[C@@H]2O | –
